In PubChem BioAssay (NCI):
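Where inhibition never reached the appropriate level, the endpoint shown equals the highest concentration tested. Otherwise, values were interpolated linearly from a five-concentration, 48-hour dose response in 96-well plates. At the GI50, growth is halved. TGI marks complete inhibition of growth.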

Assays:
Assay in all cases: DTP human tumour cell line panel, 48 h
[1] = tested on: UACC-62 melanoma
[2] = tested on: OVCAR-4 ovarian
[3] = tested on: M14 melanoma
[4] = tested on: SK-MEL-2 melanoma
[5] = tested on: NCI-H23 lung
[6] = tested on: HOP-62 NSCLC
[7] = tested on: SNB-75 CNS
[8] = tested on: MDA-MB-231 breast
[9] = tested on: LOX IMVI melanoma
[10] = tested on: NCI-H522 lung

Compound	TGI [1] [µM]	TGI [2] [µM]	TGI [3] [µM]	TGI [4] [µM]	TGI [5] [µM]	TGI [6] [µM]	TGI [7] [µM]	TGI [8] [µM]	TGI [9] [µM]	TGI [10] [µM]	GI50 [2] [µM]	GI50 [3] [µM]	GI50 [4] [µM]	GI50 [5] [µM]	GI50 [6] [µM]	GI50 [7] [µM]	GI50 [8] [µM]	GI50 [9] [µM]	GI50 [10] [µM]
O=C(N=Nc1ccccc1Cl)NNc1ccccc1Cl	> 100	58.5	> 100	67.4	> 100	> 100	> 100	> 100	44.8	52.7									
O=C(OCc1ccccc1)N1CCNCCNCCN(C(=O)OCc2ccccc2)CCNCC1	31.7	> 100	30.4	32.9		> 100	53	65.1	30.8	31.4									
O=c1[nH]c(=O)n(C2OC(CO)C(O)C2O)cc1OCCCc1ccccc1 (stereo not drawn)	> 100	> 100	> 100	> 100	> 100	> 100		> 100	> 100										
O=[N+]([O-])/C(C(Cl)=C(Cl)Cl)=C(/Nc1cccc2cccnc12)n1nnc2ccccc21		45.7	25.5	33.5	34.7	37.5	67.8												
NC(=O)CN1C=CCC(C(N)=O)=C1	> 100	> 100	> 100	> 100	> 100	> 100	> 100		> 100	> 100									
CCCCCCCCC#CCCCCCCCCCC[C@@H]1C(=O)O[C@H](C)[C@@H]1O (tested in a mixture with another compound)		54.9	41	46.4	22.3	39	52.4	94.6	28.8	18.8									
O=C(O)c1cccc(NC(C(=O)c2ccccc2)c2ccccc2)c1 (stereo not drawn)	> 100		> 100	> 100	> 100	> 100		> 100	> 100	> 100									
COc1ccccc1C1C(C#N)=C(N)Oc2n[nH]c(C)c21 (stereo not drawn)		> 100	> 100	> 100	> 100	> 100	> 100	> 100	> 100	> 100	> 100	> 100	> 100	> 100	> 100	> 100	15.1	> 100	56.3
CC1(C)O[C@@H](C[C@]2(C#N)C[C@H](CCl)OC(C)(C)O2)C[C@@H](C#N)O1	> 100	> 100	> 100	> 100	> 100	> 100	> 100		> 100	> 100									
Cc1nc(-c2cc3ccccc3oc2=O)cs1	> 100	> 100	> 100	> 100		42		72.6	> 100	> 100									
CCOC1=C(c2ccccc2)N2CCCCC2O1 (stereo not drawn)	10		12.1	7.99	> 36.4	17.6	28.7	> 48.5	13.8	13.4									
